Columns and labels:
Assay type in all cases: in vivo
Abutilon theophrasti [1] = test: Weeding effect in post-emergence stage; conditions: Dose 15 g/ha; level of fresh weight growth control rate
Method in brief: (§1)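 Post-emergence spray tower; 2-3 leaf plants (2 wk after sowing, soil pots, greenhouse). Formulation: acetone, Tween 80, methyl oleate EC 1.5 liter/ha as synergist, water. Rates 500–7.5 g/ha. Growth control rate read at 3 wk; n=3, averaged.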

Digitaria sanguinalis = test: Weeding effect in post-emergence stage; conditions: Dose 15 g/ha; level of fresh weight growth control rate
Method in brief: as §1

Setaria viridis [2] = test: Weeding effect in post-emergence stage; conditions: Dose 15 g/ha; level of fresh weight growth control rate
Method in brief: as §1

Alopecurus japonicus = test: Weeding effect in post-emergence stage; conditions: Dose 15 g/ha; level of fresh weight growth control rate
Method in brief: as §1

Eleusine indica = test: Weeding effect in post-emergence stage; conditions: Dose 15 g/ha; level of fresh weight growth control rate
Method in brief: as §1

Abutilon theophrasti [3] = test: Weeding effect in pre-emergence stage; conditions: 30 g/ha, 4 weeks
Experimental: (§2) The activity level criteria for plant damage (i.e., growth control rate) are as follows:
(§3) The aforementioned seeds of monocotyledonous and dicotyledonous weeds and main crops were put into a plastic pot loaded with soil and covered with 0.5-2 cm soil. The test compounds of the present invention was dissolved with acetone, then added with tween 80, diluted by a certain amount of water to reach a certain concentration, and sprayed immediately after sowing. The obtained seeds were incubated for 4 weeks in the greenhouse after spraying and the test results were observed. It was observed that the herbicide mostly had excellent effect at the application rate of 500, 250, 125, 60, 30, 15, 7.5 g/ha, especially to weeds such as Echinochloa crusgalli. Digitaria sanguinalis and Abutilon theophrasti, etc. And many compounds had good selectivity for corn, cotton, wheat, rice, soybean, and peanut etc. In addition, evaluate the weed control effect with the above activity standard level.

Capsella bursa-pastoris = test: Weeding effect in pre-emergence stage; conditions: 30 g/ha, 4 weeks
Experimental: as §2, §3

Descurainia sophia = test: Weeding effect in pre-emergence stage; conditions: 30 g/ha, 4 weeks
Experimental: as §2, §3

Veronica didyma Tenore = test: Weeding effect in pre-emergence stage; conditions: 30 g/ha, 4 weeks
Experimental: as §2, §3

Amaranthus retroflexus = test: Weeding effect in pre-emergence stage; conditions: 30 g/ha, 4 weeks
Experimental: as §2, §3

Setaria viridis [4] = test: Weeding effect in pre-emergence stage; conditions: 30 g/ha, 4 weeks
Experimental: as §2, §3

Echinochloa crusgalli = test: Weeding effect in post-emergence stage; conditions: Dose 15 g/ha; level of fresh weight growth control rate
Method in brief: as §1

Soybeans = test: Pre-emergence stage, crop selectivity; conditions: 30 g/ha, 4 weeks
Experimental: as §2, §3

Peanut = test: Pre-emergence stage, crop selectivity; conditions: 30 g/ha, 4 weeks
Experimental: as §2, §3

corn = test: Pre-emergence stage, crop selectivity; conditions: 30 g/ha, 4 weeks
Experimental: as §2, §3

cotton = test: Pre-emergence stage, crop selectivity; conditions: 30 g/ha, 4 weeks
Experimental: as §2, §3

Row | Compound | Weeding effect in post-emergence stage, Abutilon theophrasti (Abutilon theophrasti [1]) | Weeding effect in post-emergence stage, Digitaria sanguinalis (Digitaria sanguinalis) | Weeding effect in post-emergence stage, Setaria viridis (Setaria viridis [2]) | Weeding effect in post-emergence stage, Alopecurus japonicus (Alopecurus japonicus) | Weeding effect in post-emergence stage, Eleusine indica (Eleusine indica) | activity level (growth control rate) Abutilon theophrasti (Abutilon theophrasti [3]) | activity level (growth control rate) Capsella bursa-pastoris (Capsella bursa-pastoris) | activity level (growth control rate) Descurainia sophia (Descurainia sophia) | activity level (growth control rate) Veronica didyma Tenore (Veronica didyma Tenore) | activity level (growth control rate) Amaranthus retroflexus (Amaranthus retroflexus) | activity level (growth control rate) Setaria viridis (Setaria viridis [4]) | Weeding effect in post-emergence stage, Echinochloa crusgalli (Echinochloa crusgalli) | plant damage level Soybeans (Soybeans) | plant damage level Peanut (Peanut) | plant damage level Corn (corn) | plant damage level Cotton (cotton)
1 | CCOC(=O)COC(=O)[C@@H](C)O/N=C/c1cc(-n2c(=O)cc(C(F)(F)F)n(C)c2=O)c(F)cc1Cl [239(R)] | 5 (Level 5: growth control rate is above 85%) | 5 (Level 5: growth control rate is above 85%) | 5 (Level 5: growth control rate is above 85%) | 5 (Level 5: growth control rate is above 85%) | 5 (Level 5: growth control rate is above 85%) | 5 (Level 5: growth control rate is above 85%) | 5 (Level 5: growth control rate is above 85%) | 5 (Level 5: growth control rate is above 85%) | 5 (Level 5: growth control rate is above 85%) | 5 (Level 5: growth control rate is above 85%) | 5 (Level 5: growth control rate is above 85%) | 5 (Level 5: growth control rate is above 85%) | 0 (Level 0: growth control rate is less than 5%) | 0 (Level 0: growth control rate is less than 5%) | 0 (Level 0: growth control rate is less than 5%) | 0 (Level 0: growth control rate is less than 5%)
2 | CCOC(=O)OC(C)OC(=O)[C@@H](C)O/N=C/c1cc(-n2c(=O)cc(C(F)(F)F)n(C)c2=O)c(F)cc1Cl (stereo partly drawn) [246(R)] | 5 (Level 5: growth control rate is above 85%) | 5 (Level 5: growth control rate is above 85%) | 5 (Level 5: growth control rate is above 85%) | 5 (Level 5: growth control rate is above 85%) | 5 (Level 5: growth control rate is above 85%) | 5 (Level 5: growth control rate is above 85%) | 5 (Level 5: growth control rate is above 85%) | 5 (Level 5: growth control rate is above 85%) | 5 (Level 5: growth control rate is above 85%) | 5 (Level 5: growth control rate is above 85%) | 5 (Level 5: growth control rate is above 85%) | 5 (Level 5: growth control rate is above 85%) | 0 (Level 0: growth control rate is less than 5%) | 0 (Level 0: growth control rate is less than 5%) | 0 (Level 0: growth control rate is less than 5%) | 0 (Level 0: growth control rate is less than 5%)
3 | CC(C)=NOC(=O)[C@@H](C)O/N=C/c1cc(-n2c(=O)cc(C(F)(F)F)n(C)c2=O)c(F)cc1Cl [248(R)] | 5 (Level 5: growth control rate is above 85%) | 5 (Level 5: growth control rate is above 85%) | 5 (Level 5: growth control rate is above 85%) | 5 (Level 5: growth control rate is above 85%) | 5 (Level 5: growth control rate is above 85%) | 5 (Level 5: growth control rate is above 85%) | 5 (Level 5: growth control rate is above 85%) | 5 (Level 5: growth control rate is above 85%) | 5 (Level 5: growth control rate is above 85%) | 5 (Level 5: growth control rate is above 85%) | 5 (Level 5: growth control rate is above 85%) | 5 (Level 5: growth control rate is above 85%) | 0 (Level 0: growth control rate is less than 5%) | 0 (Level 0: growth control rate is less than 5%) | 0 (Level 0: growth control rate is less than 5%) | 0 (Level 0: growth control rate is less than 5%)
4 | CC/C(C)=N/OC(=O)[C@@H](C)O/N=C/c1cc(-n2c(=O)cc(C(F)(F)F)n(C)c2=O)c(F)cc1Cl [249(R)] | 5 (Level 5: growth control rate is above 85%) | 5 (Level 5: growth control rate is above 85%) | 5 (Level 5: growth control rate is above 85%) | 5 (Level 5: growth control rate is above 85%) | 5 (Level 5: growth control rate is above 85%) | 5 (Level 5: growth control rate is above 85%) | 5 (Level 5: growth control rate is above 85%) | 5 (Level 5: growth control rate is above 85%) | 5 (Level 5: growth control rate is above 85%) | 5 (Level 5: growth control rate is above 85%) | 5 (Level 5: growth control rate is above 85%) | 5 (Level 5: growth control rate is above 85%) | 0 (Level 0: growth control rate is less than 5%) | 0 (Level 0: growth control rate is less than 5%) | 0 (Level 0: growth control rate is less than 5%) | 0 (Level 0: growth control rate is less than 5%)
5 | COC/C(C)=N/OC(=O)[C@@H](C)O/N=C/c1cc(-n2c(=O)cc(C(F)(F)F)n(C)c2=O)c(F)cc1Cl [253(R)] | 5 (Level 5: growth control rate is above 85%) | 5 (Level 5: growth control rate is above 85%) | 5 (Level 5: growth control rate is above 85%) | 5 (Level 5: growth control rate is above 85%) | 5 (Level 5: growth control rate is above 85%) | 5 (Level 5: growth control rate is above 85%) | 5 (Level 5: growth control rate is above 85%) | 5 (Level 5: growth control rate is above 85%) | 5 (Level 5: growth control rate is above 85%) | 5 (Level 5: growth control rate is above 85%) | 5 (Level 5: growth control rate is above 85%) | 5 (Level 5: growth control rate is above 85%) | 0 (Level 0: growth control rate is less than 5%) | 0 (Level 0: growth control rate is less than 5%) | 0 (Level 0: growth control rate is less than 5%) | 0 (Level 0: growth control rate is less than 5%)
6 | C[C@@H](O/N=C/c1cc(-n2c(=O)cc(C(F)(F)F)n(C)c2=O)c(F)cc1Cl)C(=O)ON=C1CCCC1 [258(R)] | 5 (Level 5: growth control rate is above 85%) | 5 (Level 5: growth control rate is above 85%) | 5 (Level 5: growth control rate is above 85%) | 4 (Level 4: growth control rate is greater than or equal to 60% and less than 85%) | 5 (Level 5: growth control rate is above 85%) | 5 (Level 5: growth control rate is above 85%) | 5 (Level 5: growth control rate is above 85%) | 5 (Level 5: growth control rate is above 85%) | 5 (Level 5: growth control rate is above 85%) | 5 (Level 5: growth control rate is above 85%) | 5 (Level 5: growth control rate is above 85%) | 5 (Level 5: growth control rate is above 85%) | 0 (Level 0: growth control rate is less than 5%) | 0 (Level 0: growth control rate is less than 5%) | 0 (Level 0: growth control rate is less than 5%) | 0 (Level 0: growth control rate is less than 5%)
